Results on 4 molecules are retold here after patent US11340216B2, “Methods and compositions for the positive selection of protein destabilizers” (Dana-Farber Cancer Institute, Inc., priority 2016, dated 2022).

For test [1], the system named is EV-GFP / dCK-Tomato cell mixture. The test can be described thus: Cell mixing (bystander effect) assay, EV-GFP cells with dCK-Tomato cells, flow cytometry. The class given is cell-based. Particulars: 100 μM BVdU, 100,000 cells/well, start 8% EV-GFP. An excerpt: The scheme depicted in FIG. 14 generally describes the bystander effect assay in the context of dCK positive selection systems. Cells expressing dCK and tomato fluorescent protein (Td) are mixed with cells having empty vector (EV) and green fluorescent protein (GFP). When cultured with BVdU, cells expressing dCK are expected to convert the nucleotide analog into a product that elicits cytotoxicity, resulting in outgrowth of resistant cells (EV-GFP) as measured by relative GFP/Td fluorescence in the absence of significant bystander killing.
The effects of cell density in cell mixture experiments were examined. EV-GFP cells were mixed together with dCK-Tomato cells in a ratio of 1:9, and the resulting mixture of cells was plated in 6 well plates at 500,000 cells/well, 250,000 cells/well, and 100,000 cells/well, with two wells plated per cell density (FIG. 15). For each cell density, one well received 100 μM BVdU, and the other an equivalent amount of DMSO. Cells were split and re-seeded every 72 hours, to preserve cell density, and analyzed by flow cytometry to quantify the fraction of GFP and Tomato-labeled cells.
(In flow cytometry, cells or beads pass a laser one at a time.)

The next test relates to DCK-IKZF1-IRES-GFP. The test can be described thus: Same-well assay, 1:1 mixture of DCK-IRES-Tomato and DCK-IKZF1-IRES-GFP 293T stables, GFP/Tomato ratio. The class given is cell-based. Particulars: BVdU exposure, FIG. 28. The method, then: However, exposure of the cells to Pomalidomide and subsequent BVdU exposure specifically rescues the DCK-IKZF1-IRES-GFP population and increases the GFP/Tomato ratio.
This assay was deployed in a proof of concept experiment with a small library of ˜88 engineered IMiD derivatives and plated at 10 serial dilutions ranging from 10 μM to 300 pM.

The test system of test [2] is DCK-IKZF1-IRES-GFP in 293T cells. The test can be described thus: Pilot drug screen, up assay, 384 well, GFP fluorescence converted to Z-statistic. The class given is cell-based. Particulars: ~25 μM library drug, BVdU Day 1, read Day 5, FIG. 24. The method, then:
Columns 1, 23, and 24 of the plate shown in FIG. 23 (right) were treated with DMSO, Pomalidomide, and Dipyridamole, respectively, while each well in Columns 2-22 was treated with an individual drug (concentration=˜25 μM) from a library of approximately 550 bioactive chemicals. On Day 1, Column 1 was treated with DMSO, and Columns 2-24 were treated with BVdU. On Day 5, GFP fluorescence in each well was quantified using an Acumen Laser Cytometer.

Test [3] has as its system dCK-IKZF3 fusion protein. The test can be described thus: Competition assay, dCK-IKZF3 GFP cells mixed with dCK tdTomato cells, flow cytometry. The class given is cell-based. Particulars: 2 μM pomalidomide plus 100 μM BVdU, 14 days, FIG. 22. The source says:
Next, a competition assay was devised using dCK and CK-IKZF constructs (FIG. 21). In these experiments, cells expressing dCK-IKZF fusion protein and GFP were mixed with cells expressing dCK and tdTomato. In the presence of BVdU, cells expressing either construct would be capable of generating the cytotoxic product. However, upon the addition of an IMiD (pomalidomide), dCK-IKZF fusion protein would be destabilized, allowing outgrowth of GFP+ cells. dCK-IKZF3 cells labeled with GFP were mixed with dCK cells labeled with tdTomato at a ratio of 1:99 and on day −2, were plated into 6 well plates at 100,000 cells/well in triplicate. On Day −1, the “Mock” and “BVdU” wells were treated with DMSO, and the “pomalidomide” well was treated with 2 μM pomalidomide. On day 0, the “Mock” well was treated with DMSO, while the “BVdU” well was treated with 100 μM BVdU, and the “pomalidomide” well received 2 μM pomalidomide and 100 μM BvDU. Cells were split, re-seeded to maintain cell density, treated with the appropriate drugs and analyzed by flow cytometry every 3 days.

In test [4] the target is T1, deoxycytidine kinase (dCK) (Homo sapiens, UniProt P27707).
T1 construct: V5 (only if expressed from the GFP vector); expressed in transfected cells
The test can be described thus: BVdU sensitivity and pomalidomide rescue, cell count by Vi-Cell, cells expressing unfused dCK. The class given is cell-based. Particulars: 2 μM pomalidomide, BVdU dose-response, FIG. 8. The method, then:
(§1) To assess the validity of the proposed positive selection system, a set of experiments was devised according to the technique outlined in FIG. 6. On day −2, 1×10^6 cells were seeded into a 6 cm dish with 4 mL of DMEM culture media. On day −1, 30,000 cells were seeded per well of a 6 well plate in DMEM media, and on day 0, media were replaced with DMEM media supplemented with decreasing concentrations of BVdU, generated by serial dilution. From days 0-4, media were replaced daily, and on day 5, cells were counted by Vi-Cell. For pomalidomide rescue experiments, the cells were seeded as described above, but from day −2 onwards, were maintained in DMEM media supplemented with 2 μM pomalidomide (Selleck Chemicals).

The test system of test [5] is dCK-IKZF3 fusion protein. The test can be described thus: BVdU sensitivity and pomalidomide rescue, cell count by Vi-Cell, cells expressing dCK-IKZF3 fusion. As to conditions: 2 μM pomalidomide, 100 μM BVdU, counted day 5, FIG. 7. Type of test: cell-based. The method, then: as §1
For test [6], the system named is IKZF3 and IKZF3 fusion proteins. Particulars: 2 μM or 20 μM Pomalidomide, FIG. 5.
Method: HEK-293FT (Invitrogen) cells were maintained in DMEM medium supplemented with 10% FBS, 100 U/mL Penicillin and 100 μg/mL streptomycin. Stable cell lines were established by lentiviral infection followed by growth in media containing 10 μg/mL blasticidin, followed by fluorescence activated cell sorting to collect GFP-expressing cells.
On day 0, 250,000 cells were seeded into each of three wells of a 6-well plate. […] Cells were washed twice with ice-cold PBS and harvested in EBC Lysis Buffer supplemented with 1× protease inhibitor (Roche). Whole cell extracts were resolved by SDS-PAGE, transferred onto a nitrocellulose membrane, and probed with indicated primary antibodies.
The subject of test [7] is DCK-IKZF1-IRES-GFP in 293T cells. The test can be described thus: Up assay with limited drug library of approximately 700 compounds. Type of test: cell-based. As to conditions: ~700 compound library, BVdU on Day 2, read Day 5, FIG. 25. The protocol: For the up assay experiment, 293T cells stably infected to produce DCK-IKZF1-IRES-GFP were seeded in three 384 well plates on Day 0. Each well on each plate received a library drug from a ˜700 compound drug library, and BVdU on Day 2.

The target of test [8] is T2, IKZF1-Firefly luciferase protein in 293T cells (UniProt P08659+Q13422+Q96SW2).
T2 construct: expressed in transfected cells; host or cells: 293T, stably infected
The test can be described thus: Down assay, Firefly/Renilla luciferase ratio. As to conditions: read Day 5, FIG. 26. The class given is cell-based. The protocol: A down assay experiment was conducted in parallel with the up assay experiment. For the down assay experiment, 293T cells stably infected to produce the IKZF1-Firefly luciferase protein as well as the Renilla luciferase protein from a single mRNA transcript were treated as described in the “Up” Assay. On Day 5, for each plate, Firefly and Renilla luciferase signals were quantified, and the Firefly/Renilla ratio calculated for each well and converted to a Z-statistic and plotted (FIG. 26). The hits noted in the “Up Assay” have been labeled in FIG. 25 and FIG. 26 to allow for comparison between the two assays.

Each structure is given as a SMILES string.

T1 sequence (P27707 whole entry, species assumed): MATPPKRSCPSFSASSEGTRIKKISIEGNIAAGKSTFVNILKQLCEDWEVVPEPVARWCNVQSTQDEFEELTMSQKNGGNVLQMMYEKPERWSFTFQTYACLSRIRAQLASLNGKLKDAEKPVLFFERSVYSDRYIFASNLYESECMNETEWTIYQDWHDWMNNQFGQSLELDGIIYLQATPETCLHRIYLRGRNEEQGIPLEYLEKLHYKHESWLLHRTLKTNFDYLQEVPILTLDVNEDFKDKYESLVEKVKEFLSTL
T2 sequence (Q13422+P08659 fused): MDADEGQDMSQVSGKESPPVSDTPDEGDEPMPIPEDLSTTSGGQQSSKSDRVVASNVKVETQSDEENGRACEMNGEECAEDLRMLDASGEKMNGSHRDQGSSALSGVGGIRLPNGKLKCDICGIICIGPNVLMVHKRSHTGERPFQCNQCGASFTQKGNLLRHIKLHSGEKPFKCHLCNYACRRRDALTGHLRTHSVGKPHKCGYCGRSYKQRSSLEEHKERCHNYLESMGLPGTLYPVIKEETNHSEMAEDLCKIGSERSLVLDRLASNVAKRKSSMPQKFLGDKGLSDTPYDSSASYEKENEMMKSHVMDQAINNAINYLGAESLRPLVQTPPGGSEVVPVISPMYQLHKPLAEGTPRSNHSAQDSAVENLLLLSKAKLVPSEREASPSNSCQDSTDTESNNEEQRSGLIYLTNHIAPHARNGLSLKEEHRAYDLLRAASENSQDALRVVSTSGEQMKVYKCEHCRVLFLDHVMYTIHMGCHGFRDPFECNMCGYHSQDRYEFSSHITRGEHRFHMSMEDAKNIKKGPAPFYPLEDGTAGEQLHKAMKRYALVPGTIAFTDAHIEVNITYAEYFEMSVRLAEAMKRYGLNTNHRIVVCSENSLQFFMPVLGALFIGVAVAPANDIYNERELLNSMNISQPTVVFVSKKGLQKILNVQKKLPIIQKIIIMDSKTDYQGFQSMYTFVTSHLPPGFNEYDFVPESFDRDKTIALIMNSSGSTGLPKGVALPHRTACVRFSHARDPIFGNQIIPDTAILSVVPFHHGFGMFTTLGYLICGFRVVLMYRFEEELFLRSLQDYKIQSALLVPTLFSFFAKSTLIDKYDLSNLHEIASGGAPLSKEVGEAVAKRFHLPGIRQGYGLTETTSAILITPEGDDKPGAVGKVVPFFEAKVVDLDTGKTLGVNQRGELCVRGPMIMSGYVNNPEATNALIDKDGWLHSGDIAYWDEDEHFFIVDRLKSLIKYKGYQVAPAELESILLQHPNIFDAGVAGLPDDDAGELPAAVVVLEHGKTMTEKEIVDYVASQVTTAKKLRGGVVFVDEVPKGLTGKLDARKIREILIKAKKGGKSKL
T2 sequence (Q96SW2 whole entry): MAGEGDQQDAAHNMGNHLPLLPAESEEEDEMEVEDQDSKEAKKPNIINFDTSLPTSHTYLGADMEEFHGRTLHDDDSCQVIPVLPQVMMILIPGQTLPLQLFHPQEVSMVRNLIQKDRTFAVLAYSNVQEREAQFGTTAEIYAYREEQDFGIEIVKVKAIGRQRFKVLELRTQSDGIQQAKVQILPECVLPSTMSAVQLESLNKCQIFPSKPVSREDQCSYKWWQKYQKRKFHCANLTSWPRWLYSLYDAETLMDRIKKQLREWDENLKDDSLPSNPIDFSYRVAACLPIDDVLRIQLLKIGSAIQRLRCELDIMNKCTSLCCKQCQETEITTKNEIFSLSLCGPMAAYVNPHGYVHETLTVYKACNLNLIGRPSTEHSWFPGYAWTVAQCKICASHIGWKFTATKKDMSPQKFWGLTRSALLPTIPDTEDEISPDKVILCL
T2 sequence (Q16531 whole entry partner): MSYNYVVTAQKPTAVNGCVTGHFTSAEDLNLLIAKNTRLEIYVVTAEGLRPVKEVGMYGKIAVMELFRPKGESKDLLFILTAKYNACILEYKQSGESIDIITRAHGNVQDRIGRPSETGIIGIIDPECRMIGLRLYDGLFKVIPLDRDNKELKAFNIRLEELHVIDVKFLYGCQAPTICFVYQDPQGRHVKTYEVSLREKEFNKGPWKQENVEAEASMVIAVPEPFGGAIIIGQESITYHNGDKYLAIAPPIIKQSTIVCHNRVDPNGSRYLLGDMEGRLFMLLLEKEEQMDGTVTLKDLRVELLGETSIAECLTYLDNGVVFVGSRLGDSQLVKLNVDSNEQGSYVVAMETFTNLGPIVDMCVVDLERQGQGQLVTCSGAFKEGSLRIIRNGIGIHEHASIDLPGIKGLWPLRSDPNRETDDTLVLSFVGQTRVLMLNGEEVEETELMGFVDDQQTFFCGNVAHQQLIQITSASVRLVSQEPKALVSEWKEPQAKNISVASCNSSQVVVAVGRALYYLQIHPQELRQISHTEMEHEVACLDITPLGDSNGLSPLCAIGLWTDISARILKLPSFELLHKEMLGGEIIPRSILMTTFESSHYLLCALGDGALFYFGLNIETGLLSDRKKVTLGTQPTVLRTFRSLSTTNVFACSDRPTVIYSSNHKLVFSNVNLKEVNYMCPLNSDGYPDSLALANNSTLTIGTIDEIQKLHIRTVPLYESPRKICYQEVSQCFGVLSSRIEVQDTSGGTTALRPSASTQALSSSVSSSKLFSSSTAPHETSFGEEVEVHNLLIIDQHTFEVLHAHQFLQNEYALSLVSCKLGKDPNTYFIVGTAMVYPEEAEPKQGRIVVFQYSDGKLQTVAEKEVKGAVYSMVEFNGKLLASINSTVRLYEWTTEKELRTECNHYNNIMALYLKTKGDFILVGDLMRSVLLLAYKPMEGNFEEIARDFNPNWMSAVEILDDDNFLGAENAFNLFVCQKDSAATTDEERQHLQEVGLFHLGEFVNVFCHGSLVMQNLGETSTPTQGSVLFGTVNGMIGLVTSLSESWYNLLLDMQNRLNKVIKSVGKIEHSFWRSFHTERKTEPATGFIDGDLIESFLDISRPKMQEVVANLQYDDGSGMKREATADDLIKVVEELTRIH

Turning to `O=c1[nH]c(=O)n([C@H]2C[C@H](O)[C@@H](CO)O2)cc1/C=C/Br` [BVdU, bromovinyl-deoxyuridine], the “EV-GFP cells as fraction of the cell mixture” value in test [1] (day 3) is given as 29%; in test [1] (day 7) it was 88%.

As for `OCCN(CCO)c1nc(N2CCCCC2)c2nc(N(CCO)CCO)nc(N3CCCCC3)c2n1` [Dipyridamole, dipyridamole], in the test with DCK-IKZF1-IRES-GFP, the “Classification by GFP and GFP/Tomato ratio in the same well” value was “assay positive”. In addition, in [2], the “Hit classification in pilot up-assay screen (GFP Z-statistic)” value was “non-specific hits”.

In the case of `Nc1cccc2c1C(=O)N(C1CCC(=O)NC1=O)C2=O` (stereo not shown) [Pomalidomide, pomalidomide], in the test with dCK-IKZF3 fusion protein [3], the “Outgrowth of GFP+ (dCK-IKZF3) cells from 1% initial population” value is recorded as “allowed for outgrowth of GFP+cells”. In addition, in test [4], the “Rescue from BVdU in cells expressing enzyme only (DCK+Pom)” value is given as “rescue did not occur”. Also, the “Rescue of cell viability from BVdU in cells expressing the fusion construct (CK-IKZF+Pom)” value with dCK-IKZF3 fusion protein [5] was “partial rescue and cell growth”. Further, the “Classification by GFP and GFP/Tomato ratio in the same well” value in the test with DCK-IKZF1-IRES-GFP is given as “true positive”. The “Cellular levels of IKZF3 and IKZF3 fusion proteins” value in test [6] is “highly sensitive”. Moreover, in test [2], the “Hit classification in pilot up-assay screen (GFP Z-statistic)” value is given as “true-positive hits”. Besides, the “Hit classification in up assay (GFP Z-statistic)” value in test [7] is on record as “true-positive hits”.

For the molecule `Cc1cn([C@H]2C[C@H](O)[C@@H](CO)O2)c(=O)[nH]c1=O` [Thymidine], in [8], the “Hit classification in down assay (Firefly/Renilla ratio Z-statistic)” value is recorded as “does not score”. In addition, the “Hit classification in up assay (GFP Z-statistic)” value in test [7] was “assay positive”.
